Results published in PMC10666548, “Identification of the bacterial metabolite aerugine as potential trigger of human dopaminergic neurodegeneration” (Environment international, 2023).
Entries after “also recorded” stand apart in the source; their conditions may differ. Read-outs that look alike come from different tables or passages of the source.

What was measured:
[1] = system: C. elegans strains BY200 and Punc-25; test: C. elegans lethality analysis (eight day survival test); format: in vivo, Caenorhabditis elegans; details: L4 larval stage, 8, 40 and 100 μM, up to 8 days
Description: The strain BY200 Pdat-1::gfp (vtIs1), dat-1::GFP(vtls1) was kindly provided by the Blakely laboratory, Vanderbilt University Medical Center and the strain Punc-25:GFP was obtained from the Caenorhabditis Genetics Center (CGC, University of Minnesota, Minneapolis, MN, USA). The worms were maintained in nematode growth medium (NGM) plates that contain: 3 g/l NaCl, 17 g/l agar, 2.5 g/l peptone, 1 mM CaCl2, 5 mg/l cholesterol, 1 mM MgSO4, 25 mM potassium phosphate buffer (pH 6.0) with 1.25 ml nystatin and 50 mg/l streptomycin sulfate) and Escherichia coli (E. coli) OP50 strain was used as food ([Brenner, 1974]). Synchronization of worms was carried out using extraction solution (0.2% NaOCl, 0.5 M NaOH, in distilled water). The first larval stage (L1) population were obtained by isolating eggs with a 30% sucrose gradient, washed with sterile water, and resuspended in M9 buffer (42 mM Na2HPO4, 22 mM KH2PO4, 8.5 mM NaCl, and 1 mM MgSO4) ([Sulston and Hodgkin, 1998]).
For the lethality analysis, 40 to 60 BY200 and P unc-25 worms at L4 larval stage were exposed to vehicle or aerugine (8, 40 and 100 μM) in OP50-seeded NGM plates from day 0 until day 8. […] Moreover, worms were transferred to fresh plates for the first three days of treatment, which coincide with the egg laying days to avoid mixing of different generations. […]

[2] = system: human dopaminergic neurons (LUHMES cells); test: Cytotoxicity to mature (d6) LUHMES neurons, calcein-AM & H-33342 high content imaging; format: cell-based; details: for EC50: mature LUHMES d6, 24 h exposure, read-out: EC50 (half-maximal cytotoxic potency), cell viability
Description: (§1) For toxicity assessment of mature LUHMES neurons, precursor cells were pre-differentiated for 2 days in cell culture flasks pre-coated as described above and differentiation medium. Then, 45′000 cells per well were seeded in differentiation medium into standard 96-well plates pre-coated as described above. They were incubated at 37 °C and 5% CO2 for 4 days before compound treatment. At this time, cells were >99% post-mitotic and had established an extensive neurite network ([Scholz et al., 2011]) The cell viability was assessed via the Calcein/Hoechst readout, the LDH assay and the resazurin reduction assay.
(§2) Neurite area (NA) and viability (V) were assessed as described previously ([Stiegler et al., 2011]). In brief, cells were stained with 1 μM calcein-AM and 1 μg/ml H-33342 for 30 min at 37 °C and 5% CO2. Image acquisition was performed using an Array-Scan VTI HCS Reader (Cellomics, PA, USA) equipped with a Hamamatsu ORCA-ER camera. 10 fields per well were imaged with 2 channels at 20x magnification (2×2 pixel binning). Excitation/emission wavelengths of 365 ± 50/535 ± 45 nm were used for Hoechst detection in channel 1 and 474 ± 40/535 ± 45 nm were used for calcein detection in channel 2.
(§3) Nuclei were identified in channel 1 depending on intensity, area, size and shape. Their outlines were expanded by 3.2 μm to define a virtual cell soma area (VCSA), which was bigger than the average cell soma to prevent false positive NAs. All calcein-positive pixels were defined as viable cellular structures (VCSs). The NA was automatically calculated by excluding the VCSAs from the VCSs. Furthermore all nuclei co-localizing with VCSs were defined as alive.

[3] = as above; format: cell-based, human; details: human, mature LUHMES d6, 24 h exposure; read-out: EC50 (half-maximal cytotoxic potency), cell viability
Description: as §1, §2, §3

[4] = system: dopaminergic system of C. elegans BY200; test: Basal slowing response (BSR) behavioral assay; format: in vivo, Caenorhabditis elegans; details: L4 BY200 worms treated 2 days
Description: The basal slowing response (BSR) is a behavioral assay that assesses the functionality of the worms’ DAergic system. For this, worms were washed three times with S-basal buffer (100 mM NaCl, 5 mg/L cholesterol, 50 mM potassium phosphate buffer, pH 6.0) to remove residual bacteria, and placed on the center of a 60-mm NGM plates in the absence or presence of an OP50 bacteria ring. After habituation (5 min), the number of body bends of each worm was counted during 20 s to determine its immobility rate. The results were expressed as the difference (Δ) between the number of body bends in the absence (a) and presence (p) of bacteria on fresh plates (Δ = a-p). […]
Fig. 5. […] They were exposed to different aerugine concentrations and counted every 24 h. […] Differences on a given day were analyzed by ANOVA and found to be non-significant. […] The GFP-labelled neurons of 20–30 worms per condition were analyzed and scored for specific neurodegeneration. […] These scores were assessed to quantify the dopaminergic neurodegeneration caused be aerugine in vivo. C Worms with wild type morphology (score 0) were counted. […] D The degeneration scores exemplified in B were quantified. […] E The “basal slowing response” was assessed as proxy for the functionality of the worms’ dopaminergic system. It was measured in L4 larval stage BY200 worms treated for 2 days with aerugine. […]

OCC1CSC(c2ccccc2O)=N1 (stereo not drawn) [aerugine, 2-[4-(hydroxymethyl)-4,5-dihydro-1,3-thiazol-2-yl]phenol]
general survival of worms [1]: neither triggered death during the first 2 days; also recorded: not affected | cytotoxicity to DAergic neurons (viability) ([2]; d6 LUHMES, 24 h (24 h and 48 h for purified compounds)): cytotoxic to DAergic neurons in a time- and concentration-dependent manner | effect on neurite area ([2]; d6 LUHMES, 24 h assay setup): affected neurites to the same extent and at similar concentrations as cell bodies | cytotoxic potency range ([2]; d6 LUHMES, purified compound): low μM range | EC50 ([2]; listed as Aerugine): 3 to 4 µM | EC50 [2]: 3.1 ± 0.7 µM | increase of aerugine sensitivity by neuronal maturity state ([2]; mature vs proliferating LUHMES): approximately three-fold | EC50 at 24 h [3]: 4.1 ± 0.8 µM | basal slowing response (BSR) [4]: attenuated; also recorded: exerted functional dopaminergic toxicity
